Measurements published in patent US20180028680A1, “GLYCOOPTIMIZED ANTIBODY DRUG CONJUGATES” (GLYCOTOPE GMBH, priority 2015, published 2018).

Test system: SK-BR-3 cells
Experiment: Inhibition of proliferation, MTT assay
Format: cell-based, human
Conditions: 20 nM, positive control
Description: The MTT assay is a non-radioactive assay based on the cleavage of the soluble yellow tetrazolium salt MTT (3-[4,5-Dimethylthiazol-2-yl]-2,5-diphenyltetrazolium bromide; Thiazolyl Blue) by mitochondrial dehydrogenases of viable cells. […] The absorbance signal is a direct measure for viable cells in the culture.
Human IgG1 or medium alone served as negative controls. Briefly, SK-BR-3 cells were grown for 2 days in 96-well flat bottom plates. […] The supernatant was completely removed and MTT was added. Cells were incubated for 2 hours with MTT at 37° C. in a humidified CO2 incubator. The supernatant was removed and cells were lysed using HCI and 2-propanol containing lysis buffer for 1 h at room temperature in the dark. Absorbance at 570 nm/630 nm was measured in a plate reader Infinite F200 (Tecan Austria GmbH).
Proliferation after 4 days of incubation with the antibodies was calculated relative to the proliferation in the medium control.

In the case of `CC(=O)O[C@H]1C(=O)[C@@]2(C)[C@H]([C@H](OC(=O)c3ccccc3)[C@]3(O)C[C@H](OC(=O)[C@H](O)[C@@H](NC(=O)c4ccccc4)c4ccccc4)C(C)=C1C3(C)C)[C@]1(OC(C)=O)CO[C@@H]1C[C@@H]2O` [Taxol], the “proliferation compared to the medium control” value was 6%.
